Consider five compounds from patent US20220155314A1, “TROPHOBLAST STEM CELL, METHODS OF PREPARATION AND USES THEREOF” (Academia Sinica, priority 2020, published 2022).

Holding throughout (assay type): cell-based, human
Experiment [1] relates to ST-TS^Term#2 cells. The experiment is described as follows: STB differentiation from TS^Term#2 cells with cyclocreatine. The settings on record: TS^Term#2 cells induced into STBs for 72 h with cyclocreatine (FIG. 11H). An excerpt: FIGS. 11A to 11I show the regulation of STB differentiation by the GCM1-CKMT1 axis. […] TS^Term#1, TS^Term#2, and TS#1^GCM1-KO cells and their derivative STBs were subjected to RNA-seq analysis. […] TS^Term#1, TS^Term#2, and TS^Term#3 cells and their derivative STBs were subjected to immunoblotting and quantitative RT-PCR analyses of GCM1, hCGβ or CKMT1 proteins and transcripts. […] Scramble control and CKMT1-knockdown TS^Term#2 cells and their derivative STBs were stained with MitoTracker and CKMT1 Ab for immunofluorescence microscopy. Scale bars in FIGS. 11D and 11E, 100 μm. […] Scramble control and CKMT1-knockdown TS^Term#2 cells and their derivative STBs were subjected to immunoblotting and quantitative RT-PCR analyses of GCM1, hCGβ, LHB or CKMT1 proteins or transcripts. In a separated experiment, cells were stained with E-cadherin Ab for cell fusion analysis. Syncytial margins are marked with a stippled line. Cell fusion efficiency was measured by fusion index or the distribution of syncytia containing varying numbers of nuclei. Scale bar, 100 μm. […] Mock (ST)- or cyclocreatine-treated TS^Term#2 cells (ST+Cyclo-Cr) were induced into STBs for 72 h, followed by immunoblotting analysis of hCGβ protein. […]

Experiment [2] deals with BeWo cells. Description: Expression of trophoblast stemness and differentiation genes in BeWo cells treated with EGF and chemical inhibitors. The method, then:
FIGS. 6A to 6I show the regulation of trophoblast stemness and differentiation by antagonism between ΔNp63α and GCM1. […] ITGA6-positive term CTBs were cultured in complete TS medium for 5 days and then maintained in the same medium or incomplete medium (vehicle alone without EGF and chemical inhibitors) for an additional 7 days. Cells were subjected to immunofluorescence microscopy of ΔNp63α, GCM1, and hCGβ. […] BeWo cells were incubated in complete or incomplete TS medium supplemented with the indicated growth factor or chemical inhibitor(s) for 24 h. Cells were harvested for quantitative RT-PCR analysis of the indicated stemness or differentiation genes. […] BeWo cells were treated with the indicated concentration of VPA for 24 hours and then harvested for immunoblotting and quantitative RT-PCR analyses of GCM1, ΔNp63α, and hCGβ. […] BeWo cells were transfected with 4XCSL-luciferase in the presence or absence of 2 mM VPA for 48 hours, followed by luciferase assays. […] 293T cells were transfected with pHA-GCM1 and pNotch1IC-FLAG for 48 hours, followed by coimmunoprecipitation analysis and confocal microscopy using FLAG and HA mAbs and GCM1 Ab. […] EGFP-positive mock or Notch1IC-FLAG-expressing BeWo cells were treated with or without 50 μM FSK for 24 h, followed by immunoblotting and quantitative RT-PCR analyses of GCM1, hCGβ or HTRA4. […] BeWo cells were treated with or without 1 mM VPA in the presence or absence of 20 μM MG132 for 8 h and then subjected to immunoblotting analysis of GCM1 and Notch1IC. […] The EGFP-positive mock or Notch1IC-FLAG-expressing BeWo cells were transfected with the GCM1 promoter reporter plasmid E1bLUCGCM1-2K for 48 h and then subjected to luciferase assays. […] BeWo cells and ITGA6-positive term CTBs were cultured under normoxic or hypoxic conditions for 72 h and 7 days, respectively. Cells were then harvested for quantitative RT-PCR analysis of GCM1, ΔNp63α, HTRA4, hCGβ, and MKI67. Means and standard deviations obtained from three independent experiments are presented.
To study the effect of EGF and chemical inhibitors on trophoblast differentiation, BeWo cells were cultured in the complete TS medium or in the incomplete TS medium with EGF alone or the indicated chemical inhibitor(s) for 24 h. Cells were then harvested for quantitative RT-PCR or immunoblotting analysis of expression of ΔNp63α, eomesodermin (EOMES), E74-like factor 5 (ELF5) or GCM1 and its target genes.

The test system of experiment [3] is Notch signaling. The experiment is described as follows: Notch reporter (4xCSL-luciferase) assay. As to conditions: BeWo cells; 2 mM VPA, 48 hours (FIG. 6D). The procedure: FIGS. 6A to 6I show the regulation of trophoblast stemness and differentiation by antagonism between ΔNp63α and GCM1. […] ITGA6-positive term CTBs were cultured in complete TS medium for 5 days and then maintained in the same medium or incomplete medium (vehicle alone without EGF and chemical inhibitors) for an additional 7 days. Cells were subjected to immunofluorescence microscopy of ΔNp63α, GCM1, and hCGβ. […] BeWo cells were incubated in complete or incomplete TS medium supplemented with the indicated growth factor or chemical inhibitor(s) for 24 h. Cells were harvested for quantitative RT-PCR analysis of the indicated stemness or differentiation genes. […] BeWo cells were treated with the indicated concentration of VPA for 24 hours and then harvested for immunoblotting and quantitative RT-PCR analyses of GCM1, ΔNp63α, and hCGβ. […] BeWo cells were transfected with 4XCSL-luciferase in the presence or absence of 2 mM VPA for 48 hours, followed by luciferase assays. […] EGFP-positive mock or Notch1IC-FLAG-expressing BeWo cells were treated with or without 50 μM FSK for 24 h, followed by immunoblotting and quantitative RT-PCR analyses of GCM1, hCGβ or HTRA4. […] Cells were then harvested for quantitative RT-PCR analysis of GCM1, ΔNp63α, HTRA4, hCGβ, and MKI67. […]

The test system of experiment [4] is JEG3 cells. Description: Immunoblotting and quantitative RT-PCR of trophoblast differentiation and stemness genes in JEG3 cells. As to conditions: 50 μM FSK or 1 mM DB-cAMP. An excerpt: FIGS. 2A to 2I show the physical and functional interaction between ΔNp63α and GCM1. […] First-trimester and term placental sections were stained with ΔNp63α and GCM1 antibodies (Abs) for immunofluorescence microscopy. Boxed areas are shown at higher magnification and presented below. Arrowhead, asterisk, and arrow indicate trophoblasts expressing ΔNp63α, GCM1, and both, respectively. Nuclei were stained with DAPI. Term placental sections were stained with CK7 Ab for trophoblasts and normal mouse IgG (M-IgG) and rabbit IgG (R-IgG) for negative controls. […] Mock and ΔNp63α-FLAG-expressing BeWo cells were subjected to immunoblotting (left) and quantitative RT-PCR (right) analyses of GCM1, HTRA4, and hCGβ proteins and transcripts. […] BeWo cells stably expressing scramble or GCM1 shRNA were subjected to immunoblotting (left) and quantitative RT-PCR (right) analyses of GCM1 and ΔNp63α proteins and transcripts. […] JEG3 cells were mock treated (DMSO or control buffer (CTRL)) or treated with 50 μM FSK or 1 mM DB-cAMP for 24 h, followed by immunoblotting and quantitative RT-PCR analyses of the indicated trophoblast differentiation and stemness proteins or transcripts. […]
FIGS. 3A to 3I show reciprocal regulation of GCM1 and ΔNp63α activities in trophoblast differentiation. […] Cell fusion was quantified by fusion index. […]
On the technique in general: A western blot detects proteins with antibodies after separation by electrophoresis.

Where [5] appears, read: VPA 24 hours, dose-dependent (FIG. 6C).
Setting [6] is: EGF alone in incomplete TS medium, 24 h (FIG. 6B).
Setting [7] is: single agent in incomplete TS medium, 24 h (FIG. 6B).

Turning to `NC1=NCCN1CC(=O)O` [cyclocreatine], in experiment [1], the “hCGβ, SYN1, and LHB expression” value is given as “suppressed”.

`CCCC(CCC)C(=O)O` [VPA, valproic acid]: in experiment [2] (setting [5]), the “GCM1 and hCGβ expression” value is given as “suppress”; the ΔNp63α expression entry was “increase”. The “Notch reporter plasmid p4×CSL-luciferase activity” value in experiment [3] is given as “transactivated”.

On to “epidermal growth factor (NSDSECPLSHDGYCLHDGVCMYIEALDKYACNCVVGYIGERCQYRDLKWWELR; not fully specified; Epidermal growth factor; UniProt P01133 971-1023, looked up) [EGF, growth factor in complete TS medium]”, for which, in experiment [2] (setting [6]), the “GCM1 and WNT10B expression” value was “suppressed”; the hCGβ expression entry was “enhanced”.

As for `CCCC(=O)Nc1ncnc2c1ncn2[C@@H]1O[C@@H]2COP(=O)(O)O[C@H]2[C@H]1OC(=O)CCC` [DB-cAMP, dibutyryl-cAMP], in experiment [4] (24 h (FIG. 2I)), the “expression of ΔNp63α and trophoblast stemness genes ELF5, EOMES, and TEAD4” value is listed as “decreased expression”. The “expression of GCM1 and its target genes syncytin-1 (SYN1), hCGβ, HTRA4, PGF, and WNT10B” value in experiment [4] (24 h, immunoblotting and qRT-PCR (FIG. 2I)) is given as “increased expression”.

Consider `Cc1c[nH]c(-c2cnc(NCCNc3ccc(C#N)cn3)nc2-c2ccc(Cl)cc2Cl)n1` [CHIR99021], for which, in experiment [2] (setting [7]), the “expression of ELF5, TEAD4, and AXIN2” value is given as “upregulation”; the “expression of WNT10B” value is reported as “downregulation”.
